In brackets after ≈: the same amount, converted by molar mass. Read-outs that look alike come from different tables or passages of the source.
Columns and labels:
Experiment in all cases: Broth microdilution MIC/MBC
Type in all cases: cell-based
[1] = test system: Salmonella typhimurium ATCC 14028; conditions: for MBC / MIC: Salmonella enterica
Summary of the method: (§1)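 Compounds were dissolved in DMSO and tested against reference strains, including Gram-positive bacteria and Candida spp., following EUCAST and CLSI broth microdilution procedures. Two-fold serial dilutions covered final concentrations from 1000 to 0.488 µg/ml, in RPMI 1640/MOPS for fungi and Mueller-Hinton broth for bacteria. Each strain was added as a 0.5 McFarland suspension.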

[2] = test system: Staphylococcus aureus ATCC 43300; conditions: Staphylococcus aureus ATCC 43300 (MRSA)
Summary of the method: as §1

[3] = test system: Bacillus subtilis ATCC 6633; conditions: for MBC: ATCC6633
Summary of the method: as §1

[4] = test system: Escherichia coli ATCC 25922; conditions: for MBC / MIC: ATCC25922
Summary of the method: as §1

[5] = test system: Klebsiella pneumoniae ATCC 13883; conditions: for MBC / MIC: ATCC13883
Summary of the method: as §1

[6] = test system: Bordetella bronchiseptica ATCC 4617; conditions: for MBC / MIC: ATCC4617
Summary of the method: as §1

[7] = test system: Bacillus cereus ATCC 10876; conditions: for MBC: ATCC10876
Summary of the method: as §1

[8] = test system: Enterococcus faecalis ATCC 29212; conditions: for MBC: ATCC29212, read-out: MBC; for MIC: ATCC29212, read-out: MIC
Summary of the method: as §1

| SMILES | MBC/MIC [1] | MBC [1] | MIC [1] | MBC [2] | MBC/MIC [2] | MIC [2] | MBC/MIC [3] | MBC [3] | MIC ([3]; ATCC6633, read-out: MIC) | MBC/MIC [4] | MBC [4] | MIC [4] | MIC [5] | MIC [6] | MBC/MIC [7] | MBC [7] | MIC ([7]; ATCC10876, read-out: MIC) | MBC/MIC [8] | MBC [8] | MIC [8] | further results |
| --- | --- | --- | --- | --- | --- | --- | --- | --- | --- | --- | --- | --- | --- | --- | --- | --- | --- | --- | --- | --- | --- |
| O=C(N/N=C/c1cc(I)cc(I)c1O)c1ccc(O)cc1O [Compound 18, 2,4-dihydroxy-N-[(2-hydroxy-3,5-diiodophenyl)methylidene]benzohydrazide] | > 1 | > 1000 µg/mL | 1000 µg/mL (≈ 1.91 mM) | 31.2 µg/mL (≈ 0.0596 mM) | 8 | 3.91 µg/mL (≈ 0.00746 mM) | 2 | 3.91 µg/mL (≈ 0.00746 mM) | 1.95 µg/mL (≈ 0.00372 mM) | > 2 | > 1000 µg/mL | 500 µg/mL (≈ 0.954 mM) | 500 µg/mL (≈ 0.954 mM) | 500 µg/mL (≈ 0.954 mM) | 4 | 15.6 µg/mL (≈ 0.0298 mM) | 3.91 µg/mL (≈ 0.00746 mM) | 4 | 15.6 µg/mL (≈ 0.0298 mM) | 3.91 µg/mL (≈ 0.00746 mM) | MIC [3]: 1.95 µg/mL (≈ 0.00372 mM); MBC/MIC [5]: > 2; MBC [5]: > 1000 µg/mL; MBC/MIC [6]: > 2; MBC [6]: > 1000 µg/mL; MIC [7]: 3.91 µg/mL (≈ 0.00746 mM) |
| O=C(N/N=C/c1ccccc1F)c1ccc(O)cc1O [Compound 24, N-[(2-fluorophenyl)methylidene]-2,4-dihydroxybenzohydrazide] |  |  | > 1000 µg/mL |  |  | > 1000 µg/mL | > 2 | > 1000 µg/mL | 500 µg/mL (≈ 1.82 mM) |  |  | > 1000 µg/mL | > 1000 µg/mL | > 1000 µg/mL | > 1 | > 1000 µg/mL | 1000 µg/mL (≈ 3.65 mM) | > 1 | > 1000 µg/mL | 1000 µg/mL (≈ 3.65 mM) |  |
| CCCc1ccc(/C=N/NC(=O)c2ccc(O)cc2O)cc1 [Compound 13, 2,4-dihydroxy-N-[(4-propylphenyl)methylidene]benzohydrazide] | > 1 | > 1000 µg/mL | 1000 µg/mL (≈ 3.35 mM) | > 1000 µg/mL | > 1 | 1000 µg/mL (≈ 3.35 mM) | > 1 | > 1000 µg/mL | 1000 µg/mL (≈ 3.35 mM) | > 1 | > 1000 µg/mL | 1000 µg/mL (≈ 3.35 mM) | 1000 µg/mL (≈ 3.35 mM) | 1000 µg/mL (≈ 3.35 mM) | > 1 | > 1000 µg/mL | 1000 µg/mL (≈ 3.35 mM) | > 1 | > 1000 µg/mL | 1000 µg/mL (≈ 3.35 mM) | MBC/MIC [5]: > 1; MBC [5]: > 1000 µg/mL; MBC/MIC [6]: > 1; MBC [6]: > 1000 µg/mL |
| O=C(N/N=C/c1cccc([N+](=O)[O-])c1)c1ccc(O)cc1O [Compound 20, 2,4-dihydroxy-N-[(3-nitrophenyl)methylidene]benzohydrazide] |  |  | > 1000 µg/mL |  |  | > 1000 µg/mL | > 4 | > 1000 µg/mL | 250 µg/mL (≈ 0.83 mM) |  |  | > 1000 µg/mL | > 1000 µg/mL | > 1000 µg/mL |  |  | > 1000 µg/mL |  |  | > 1000 µg/mL |  |
| O=C(N/N=C/c1ccccc1Br)c1ccc(O)cc1O [Compound 23, N-[(2-bromophenyl)methylidene]-2,4-dihydroxybenzohydrazide] |  |  | > 1000 µg/mL |  |  | > 1000 µg/mL |  |  | > 1000 µg/mL |  |  | > 1000 µg/mL | > 1000 µg/mL | > 1000 µg/mL |  |  | > 1000 µg/mL |  |  | > 1000 µg/mL |  |
| O=C(N/N=C/c1ccccc1[N+](=O)[O-])c1ccc(O)cc1O [Compound 19, 2,4-dihydroxy-N-[(2-nitrophenyl)methylidene]benzohydrazide] | > 1 | > 1000 µg/mL | 1000 µg/mL (≈ 3.32 mM) | > 1000 µg/mL | > 2 | 500 µg/mL (≈ 1.66 mM) | > 4 | > 1000 µg/mL | 250 µg/mL (≈ 0.83 mM) | > 1 | > 1000 µg/mL | 1000 µg/mL (≈ 3.32 mM) | 500 µg/mL (≈ 1.66 mM) | 1000 µg/mL (≈ 3.32 mM) | > 4 | > 1000 µg/mL | 250 µg/mL (≈ 0.83 mM) | > 2 | > 1000 µg/mL | 500 µg/mL (≈ 1.66 mM) | MBC/MIC [5]: > 1; MBC [5]: > 1000 µg/mL; MBC/MIC [6]: > 1; MBC [6]: > 1000 µg/mL |
| O=C(N/N=C/c1ccc([N+](=O)[O-])cc1)c1ccc(O)cc1O [Compound 21, 2,4-dihydroxy-N-[(4-nitrophenyl)methylidene]benzohydrazide] |  |  | > 1000 µg/mL | > 1000 µg/mL | > 2 | 500 µg/mL (≈ 1.66 mM) | > 2 | > 1000 µg/mL | 500 µg/mL (≈ 1.66 mM) |  |  | > 1000 µg/mL | > 1000 µg/mL | > 1000 µg/mL | > 2 | > 1000 µg/mL | 500 µg/mL (≈ 1.66 mM) | > 4 | > 1000 µg/mL | 500 µg/mL (≈ 1.66 mM) |  |
| O=C(N/N=C/c1ccccc1Cl)c1ccc(O)cc1O [Compound 22, N-[(2-chlorophenyl)methylidene]-2,4-dihydroxybenzohydrazide] |  |  | > 1000 µg/mL |  |  | > 1000 µg/mL |  |  | > 1000 µg/mL |  |  | > 1000 µg/mL | > 1000 µg/mL | > 1000 µg/mL |  |  | > 1000 µg/mL |  |  | > 1000 µg/mL |  |

From article PMC10743905, “Design, Synthesis, and In Vitro and In Vivo Bioactivity Studies of Hydrazide–Hydrazones of 2,4-Dihydroxybenzoic Acid” (International Journal of Molecular Sciences, 2023)
